Laboratory results taken from US8969395B2, “Triterpenoid derivatives useful as antiproliferative agents” (Universidade de Coimbra, priority 2009, dated 2015).

How the values were obtained:
Assay type in all cases: cell-based
Conditions in all cases: 72 h, mean ±SD
[1] = tested on: HeLa (human cervical adenocarcinoma); assay: Cytotoxic activity, MTT assay, HeLa
Protocol: (§1) The cytotoxic of compounds of formulas (I) and (II) 14-50 was assessed towards human cancer (HepG2, HeLa and Jurkat) cell lines (Table 3 below). Compounds presented on Table 4 were also tested against a non-tumoral liver cell line (Chang liver). The cell viability of HeLa, HepG2 and Chang liver cells was determined by the MTT assay. Briefly, exponentially growing cells were plated in 96-well plates at a density of 1×10^3, 8×10^3 and 5×10^3 cells/well respectively and incubated for 24 h before treatment. The grown medium was replaced with one contained the tested compounds dissolved in DMSO (final DMSO concentration <0.1%) at different concentrations, in triplicate wells, and cells were incubated for 72 h. After incubation with the compounds, the medium was removed and MTT solution (0.5 mg/ml, 100 μl) was added to each well and the plates were incubated again for 1 h. DMSO (100 μl) was then added to dissolve the formazan crystals and the plates were immediately read at 550 nm on an ELISA plate reader (Tecan Sunrise MR20-301, TECAN, Austria). For the Jurkat cells, the cell viability was determined by the XTT assay. Briefly, exponentially growing cells were plated in 96-well plates at a density of 5.5×10^3 cells/well, treated with different concentrations of compounds in triplicate and incubated for 72 h. After incubation with the compounds the XTT labeling mixture (100 μl) were added to each of the wells and after a 4 h incubation period the plates were read at 450 nm on an ELISA plate reader. […] Known for its cytotoxic activity, betulinic acid 2 was used as a positive control in this experimentation.

[2] = tested on: HepG2 (human hepatocellular carcinoma); assay: Cytotoxic activity, MTT assay, HepG2
Protocol: as §1, with “experimentation. […] All the IC50 results represent an average of a minimum of three experiments and were expressed as means±standard deviation (SD).” for “experimentation.”

Jurkat (human leukemia) = assay: Cytotoxic activity, XTT assay, Jurkat
Protocol: as §1, with “experimentation. […] All the IC50 results represent an average of a minimum of three experiments and were expressed as means±standard deviation (SD).” for “experimentation.”

[3] = tested on: Chang liver (human normal liver cells); assay: Cytotoxic activity against non-tumoral cell line, MTT assay
Protocol: as §1, with “experimentation. […] All the IC50 results represent an average of a minimum of three experiments and were expressed as means±standard deviation (SD).” for “experimentation.”

SMILES	IC50 [1]	IC50 [2]	IC50 (Jurkat (human leukemia))	IC50 [3]
C=C(C)[C@@H]1CC[C@]2(COC(=O)n3cncn3)CC[C@]3(C)[C@H](CC[C@@H]4[C@@]5(C)CC[C@H](O)C(C)(C)[C@@H]5CC[C@]43C)[C@@H]12 [Compound 16, 3β-hydroxy-lup-20(29)-en-28-yl-1H-triazole-1-carboxylate]	15.2 ± 2.1 µM			
C=C(C)[C@@H]1CC[C@]2(COC(=O)n3ccnc3C)CC[C@]3(C)[C@H](CC[C@@H]4[C@@]5(C)CC[C@H](OC(=O)n6ccnc6C)C(C)(C)[C@@H]5CC[C@]43C)[C@@H]12 [Compound 18, Lup-20(29)-en-3β,28-di-yl-(2′-methyl-1H-imidazole-1-carboxylate)]	> 30 µM	> 30 µM	> 30 µM	
C=C(C)C1CCC2(COC(=O)n3cncn3)CCC3(C)C(CCC4C5(C)CCC(OC(=O)n6cncn6)C(C)(C)C5CCC43C)C12 (stereo not drawn) [Compound 19, Lup-20(29)-en-3β,28-di-yl-(1H-triazole-1-carboxylate)]	> 30 µM			
C=C(C)[C@@H]1CC[C@]2(CO)CC[C@]3(C)[C@H](CC[C@@H]4[C@@]5(C)CC[C@H](OC(=O)n6cncn6)C(C)(C)[C@@H]5CC[C@]43C)[C@@H]12 [Compound 21, 28-hydroxy-lup-20(29)-en-3β-yl-1H-triazole-1-carboxylate]	11.3 ± 1.9 µM			
C=C(C)[C@@H]1CC[C@]2(COC(=O)n3ccnc3)CC[C@]3(C)[C@H](CC[C@@H]4[C@@]5(C)CC[C@H](OC(C)=O)C(C)(C)[C@@H]5CC[C@]43C)[C@@H]12 [Compound 22, 3β-acetoxy-lup-20(29)-en-28-yl-1H-imidazole-1-carboxylate]	> 30 µM	> 30 µM	> 30 µM	
C=C(C)[C@@H]1CC[C@]2(COC(=O)n3ccnc3C)CC[C@]3(C)[C@H](CC[C@@H]4[C@@]5(C)CC[C@H](OC(C)=O)C(C)(C)[C@@H]5CC[C@]43C)[C@@H]12 [Compound 23, 3β-acetoxy-lup-20(29)-en-28-yl-2′-methyl-1H-imidazole-1-carboxylate]	> 30 µM	> 30 µM	> 30 µM	
C=C(C)[C@@H]1CC[C@]2(COC(=O)n3cncn3)CC[C@]3(C)[C@H](CC[C@@H]4[C@@]5(C)CC[C@H](OC(C)=O)C(C)(C)[C@@H]5CC[C@]43C)[C@@H]12 [Compound 24, 3β-acetoxy-lup-20(29)-en-28-yl-1H-triazole-1-carboxylate]	23.2 ± 2.1 µM			
C=C(C)[C@@H]1CC[C@]2(COC(C)=O)CC[C@]3(C)[C@H](CC[C@@H]4[C@@]5(C)CC[C@H](OC(=O)n6ccnc6)C(C)(C)[C@@H]5CC[C@]43C)[C@@H]12 [Compound 25, 28-acetoxy-lup-20(29)-en-3β-yl-1H-imidazole-1-carboxylate]	> 30 µM	> 30 µM	> 30 µM	
C=C(C)[C@@H]1CC[C@]2(COC(C)=O)CC[C@]3(C)[C@H](CC[C@@H]4[C@@]5(C)CC[C@H](OC(=O)n6ccnc6C)C(C)(C)[C@@H]5CC[C@]43C)[C@@H]12 [Compound 26, 28-acetoxy-lup-20(29)-en-3β-yl-2′-methyl-1H-imidazole-1-carboxylate]	> 30 µM	> 30 µM	> 30 µM	
C=C(C)C1CCC2(COC(C)=O)CCC3(C)C(CCC4C5(C)CCC(OC(=O)n6cncn6)C(C)(C)C5CCC43C)C12 (stereo not drawn) [Compound 27, 28-acetoxy-lup-20(29)-en-3β-yl-1H-triazole-1-carboxylate]	> 30 µM			
C=C(C)C1CCC2(C(=O)n3cncn3)CCC3(C)C(CCC4C5(C)CCC(OC(=O)n6cncn6)C(C)(C)C5CCC43C)C12 (stereo not drawn) [Compound 32, 28-(1H-triazole-1-yl)-28-oxo-lup-20(29)-en-3β-yl-1H-triazole-1-carboxylate]	14.5 ± 3.2 µM			
C=C(C)[C@@H]1CC[C@]2(C(=O)OC)CC[C@]3(C)[C@H](CC[C@@H]4[C@@]5(C)CC[C@H](OC(=O)n6ccnc6)C(C)(C)[C@@H]5CC[C@]43C)[C@@H]12 [Compound 33, Methyl 3β-(1H-imidazole-1-carbonyloxy)-lup-20(29)-en-28-oate]	8.2 ± 0.5 µM	4.3 ± 0.1 µM	9.9 ± 0.6 µM	73.9 ± 3.6 µM
C=C(COC)[C@@H]1CC[C@]2(COC(=O)n3cncn3)CC[C@]3(C)[C@H](CC[C@@H]4[C@@]5(C)CC[C@H](O)C(C)(C)[C@@H]5CC[C@]43C)[C@@H]12 [Compound 37, 3β-hydroxy-30-methoxylup-20(29)-en-28-yl-1H-triazole-1-carboxylate]	13.8 ± 2.3 µM			
C=C(COC)[C@@H]1CC[C@]2(COC(=O)n3ccnc3C)CC[C@]3(C)[C@H](CC[C@@H]4[C@@]5(C)CC[C@H](OC(=O)n6ccnc6C)C(C)(C)[C@@H]5CC[C@]43C)[C@@H]12 [Compound 39, 30-methoxylup-20(29)-en-3β,28-di-yl-(2′-methyl-1H-imidazole-1-carboxylate)]	13.4 ± 0.6 µM	28.2 ± 2.5 µM	> 30 µM	
C=C(COC)C1CCC2(COC(=O)n3cncn3)CCC3(C)C(CCC4C5(C)CCC(OC(=O)n6cncn6)C(C)(C)C5CCC43C)C12 (stereo not drawn) [Compound 40, 30-methoxylup-20(29)-en-3β,28-di-yl-(1H-triazole-1-carboxylate)]	> 30 µM			
C=C(C)[C@@H]1CC[C@]2(C(=O)n3ccnc3)CC[C@]3(C)[C@H](CC[C@@H]4[C@@]5(C)C=C(O)C(=O)C(C)(C)[C@@H]5CC[C@]43C)[C@@H]12 [Compound 48, 2-hydroxy-28-(1H-imidazol-1-yl)-lup-1,20(29)-dien-3,28-dione]	4.6 ± 0.7 µM	6.5 ± 0.4 µM	7 ± 1.6 µM	62.8 ± 10.3 µM
C=C(C)[C@@H]1CC[C@]2(C(=O)n3ccnc3)CC[C@]3(C)[C@H](CC[C@@H]4[C@@]5(C)C=C(OC(=O)n6ccnc6)C(=O)C(C)(C)[C@@H]5CC[C@]43C)[C@@H]12 [Compound 49, 2-(1H-imidazole-1-carbonyloxy)-28-(1H-imidazol-1-yl)-lup-1,20(29)-dien-3,28-dione]	3.9 ± 0.3 µM	4 ± 0.3 µM	8.1 ± 0.6 µM	71.6 ± 4.9 µM
